“And” between values parts separate entries of the source, which are not always exact repeats. Equal entries are not always repeated.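 Assay format: 96-well plates, 48-hour exposure. GI50: concentration for 50% inhibition of growth. At the TGI there is no net growth.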
Assays:
Assay in all cases: DTP human tumour cell line panel, 48 h
HL-60(TB) leukemia = tested on: HL-60(TB) leukemia
HOP-62 NSCLC = tested on: HOP-62 NSCLC
KM12 colon = tested on: KM12 colon
M14 melanoma = tested on: M14 melanoma
OVCAR-3 ovarian = tested on: OVCAR-3 ovarian
OVCAR-4 ovarian = tested on: OVCAR-4 ovarian
PC-3 prostate = tested on: PC-3 prostate
RXF 393 renal = tested on: RXF 393 renal
SF-539 CNS = tested on: SF-539 CNS
SK-MEL-28 melanoma = tested on: SK-MEL-28 melanoma

Row | Compound | TGI (HL-60(TB) leukemia) | TGI (HOP-62 NSCLC) [µM] | TGI (KM12 colon) [µM] | TGI (M14 melanoma) [µM] | TGI (OVCAR-3 ovarian) | TGI (OVCAR-4 ovarian) [µM] | TGI (PC-3 prostate) [µM] | TGI (RXF 393 renal) | TGI (SF-539 CNS) [µM] | TGI (SK-MEL-28 melanoma) [µM] | GI50 (HL-60(TB) leukemia) | GI50 (HOP-62 NSCLC) [µM] | GI50 (KM12 colon) | GI50 (M14 melanoma) [nM] | GI50 (OVCAR-3 ovarian) | GI50 (OVCAR-4 ovarian) [µM] | GI50 (PC-3 prostate) [µM] | GI50 (RXF 393 renal) [nM] | GI50 (SK-MEL-28 melanoma) [µM] | GI50 (SF-539 CNS) [nM]
1 | Nc1nc(-c2cccnc2)cc(-c2cc(-c3cccnc3)nc(N)n2)n1 | > 100 µM | > 100 | > 100 | > 100 | > 100 µM | > 100 | > 100 | > 100 µM | > 100 | > 100 |  |  |  |  |  |  |  |  |  | 
2 | Cc1cc(-c2nc3sc(C)cn3c2/C=N/N=C(N)N)c(C)s1 | > 100 µM | 8.64 | 9.62 | 3.11 | 9.56 µM | 27.4 | 15.5 | 32.7 µM |  | 4.12 | > 100 µM | 3.17 | 2.68 µM | 1700 | 2.04 µM | 10.7 | 3.65 | 15000 | 2.02 | 
3 | Nc1nc(Sc2ccc([N+](=O)[O-])c3nonc23)c2ncn(C3OC(CO)C(O)C3O)c2n1 (centres undefined) | 23.5 µM | > 100 | > 64.1 | 8.15 | 24.6 µM | 17.8 | 26.6 | > 62.5 µM | > 37.2 | 26.6 | 3.7 µM | 0.531 | 2.89 µM | 456 | 2.17 µM | 1.89 | 3.24 | 10400 | 11.7 | 738
4 | COc1cccc(S(=O)(=O)NC2=NCCN2C(=S)SN2CCn3c2nsc3=S)c1 | 79.4 µM | > 100 | 80.1 | > 100 | 56.5 µM | > 100 | > 100 | 46.9 µM | 70 | 74.2 | 26.1 µM | 55.5 | 30.5 µM | 31400 | 25.6 µM | 34.2 | 36.2 | 16800 | 31.4 | 27300
5 | NC(=O)c1cn(C2CC(O)C(CO)O2)c2ncnc(N)c12 (centres undefined) | 20 µM | 49.7 | 28.4 | 22.6 | 19.6 µM | > 100 | > 35.4 | 13.9 µM | 15.1 | > 83.1 | 2.73 µM | 5.36 | 5.18 µM | 3120 | 4.09 µM | 6.26 | 1.57 | 2080 | 7.28 | 3340
6 | O=S(O)O.O=S(O)O.[Co].[NH2-].[NH2-].[NH2-].[NH2-] | > 100 µM | > 100 | > 100 | > 100 | > 100 µM | > 100 | > 100 | > 100 µM | > 100 | > 100 | > 100 µM | > 100 | > 100 µM | > 100000 | > 100 µM | > 100 | > 100 | > 100000 | > 100 | > 100000
7 | CCOC(=O)c1c(NN2CCN(CC(F)(F)F)CC2)oc(/C=C2\C=Nc3ncccc32)c1O | 4.67 µM | 21.8 | 15.3 | 24.4 | 19.4 µM | 26.4 | 21.4 | 4.19 µM | 13.9 | 29.9 | 1.85 µM | 5.03 | 3.45 µM | 4770 | 4.06 µM | 6.17 | 4.04 | 1200 | 11 | 2330
8 | CC(C)(C)c1cc(C[P+](c2ccccc2)(c2ccccc2)c2ccccc2)cc(C(C)(C)C)c1O | 0.682 µM | 3.94 | 1.51 | 3.53 | 10.2 µM | 9.16 | 1.91 | 4.67 µM | 7.83 | 8.21 | 0.22 µM | 0.66 | 0.364 µM | 398 | 0.359 µM | 0.337 | 0.278 | 1000 | 0.637 | 854
9 | COc1ccc(C2c3ccc4ccccc4c3Oc3ncn(CCCn4ccnc4)c(=N)c32)cc1OC (centres undefined) | 4.05 µM | 18.4 | 13.9 | 3.83 | 11 µM | 26.4 | 12.9 | 4.64 µM | 3.28 | 3.5 | 2.04 µM | 5.03 | 3.74 µM | 1980 | 3.44 µM | 9.65 | 3.23 | 1780 | 1.79 | 1740
10 | CC(=O)OCC1OC(SC2=N/C(=C\c3ccc(Br)s3)C(=O)N2c2ccccc2)C(OC(C)=O)C(OC(C)=O)C1OC(C)=O (centres undefined) | > 100 µM and 21.4 µM | > 100 | > 100 |  | > 100 µM and 85.2 µM | > 100 | > 100 | 57.2 µM and > 100 µM |  | > 100 | 8.5 µM and 3.83 µM |  | > 100 µM and 44.3 µM |  | 91.1 µM and 20.7 µM |  |  |  |  | 
11 | OCC1OC(N2C=C(c3nc4ccccc4s3)C3C=CC=CC32)C(O)C(O)C1O (centres undefined) | > 50 µM | > 50 | 24.3 | > 50 | > 50 µM |  | > 50 | > 50 µM | 40.3 | > 50 | 17.1 µM | 20.8 | 11 µM | 15300 | 14.9 µM |  | 13 | 18900 | 19.2 | 14800
12 | CCOc1ccccc1/C=N\N=C(N/N=C/c1ccccc1OCC)N/N=C/c1ccccc1OCC | > 100 µM | > 100 | > 100 |  | 6.79 µM | > 100 | > 100 | > 100 µM | > 100 | > 100 | 5.21 µM | 1.85 | 1.72 µM |  | 0.532 µM | 1.17 | 2.06 | 2670 | 4.38 | 2410
13 | CCCCCCOC(=O)CC1=C(C)/C(=C/c2[nH]c(-c3ccc[nH]3)cc2OC)N=C1C | 1.76 µM | 1.15 | 1.4 | 0.328 | 1.15 µM | 1.71 | 1.78 | 1.07 µM | 1.27 |  | 0.385 µM | 0.0982 | 0.0535 µM | 34.2 | 0.168 µM | 0.0785 | 0.0487 | 163 |  | 63.5
14 | c1cc(OCCN2CCCC2)ccc1CNc1ccc2nc(CCC3CCCCC3)[nH]c2c1 | 3.72 µM | 3.62 | 8.46 | 3.23 | 3.52 µM | 12.7 | 5.16 | 3.23 µM | 3 |  | 1.79 µM | 1.71 | 2.7 µM | 1600 | 1.67 µM | 2.64 | 1.93 | 1320 |  | 1510
15 | CCCCCSc1ccc2nc(NC(=O)OCC)sc2c1 | > 100 µM | 31.1 | > 100 | > 100 | 2.14 µM |  | > 100 | 9.19 µM | 4.77 | > 100 | 0.351 µM | 0.491 | 0.409 µM | 446 | 0.346 µM |  | 0.798 | 1030 | 66.2 | 400
16 | CCCN(CCC)c1ccc(/C=N/NC(=O)c2cccnc2)c(C)c1 | 39.5 µM | 43.3 | 24.5 |  | 27.8 µM | 78.5 | 67.7 | 30.7 µM | 29.3 | 43.1 | 13.4 µM | 18.2 | 11.9 µM |  | 13 µM | 15.3 | 16.8 | 15100 | 16.4 | 13800
17 | COc1ccc(O)c(/C=N\Nc2ccccc2)c1 | 17.4 µM | > 100 |  | 73.2 |  | > 100 | > 100 | > 100 µM | 68.4 | 91.4 |  |  |  |  |  |  |  |  |  | 
18 | Cc1ccc(-c2cc(C(=O)Nc3ccc(S(=O)(=O)N4CCCCC4)cc3)[nH]n2)c(O)c1 | > 100 µM | > 100 | > 100 |  | > 100 µM | > 100 | > 100 | > 100 µM | > 100 | > 100 | > 100 µM | > 100 | > 100 µM |  | > 100 µM | > 100 | > 100 | > 100000 | > 100 | > 100000
19 | O=C1OC2(c3ccc(O)cc3Oc3cc(O)ccc32)c2cccc3cccc1c23 | 81.6 µM | 33.9 | 57.8 | 56.7 |  | 34.4 | > 100 | 26.9 µM | 43.4 | 34.3 | 30.6 µM | 17 | 23.2 µM | 22300 |  | 16.1 | 36.2 | 13800 | 17.2 | 18700
20 | COc1cccc2c1C(=O)c1c(O)c3c(c(O)c1C2=O)C[C@](O)(C(=O)CO)C[C@H]3O[C@@H]1C[C@@H](NC(=O)CCCN(C)C2(c3ccc(F)cc3)CC3CCC2C3)[C@H](O)[C@@H](C)O1 (some centres undefined) | 3.01 µM | 10.6 |  | 1.73 | 1.71 µM | 1.61 | 3.11 | 1.41 µM | 1.56 | 1.72 | 1.17 µM | 2.26 |  | 925 | 0.852 µM | 0.844 | 1.18 | 696 | 0.946 | 846
